Results as given in ChEMBL document CHEMBL1201862, “PubChem BioAssay data set” (2004).
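Test compounds were applied to cells in 96-well plates for 48 hours at 5 doses. The concentration for 50% growth inhibition is given as GI50.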 Calls of active or inactive are those of the source. Rule as the data show it: active = GI50 up to about 1.1 µM and inactive = higher.

Key:
Test in all cases: growth of human tumour cells (NCI), 48 h
786-0 = test system: 786-0
A498 = test system: A498
A549 = test system: A549
ACHN = test system: ACHN
BT-549 = test system: BT-549
CAKI-1 = test system: CAKI-1
COLO 205 = test system: COLO 205
DU-145 = test system: DU-145
EKVX = test system: EKVX
HCT-116 = test system: HCT-116
HCT-15 = test system: HCT-15
HOP-62 = test system: HOP-62
HOP-92 = test system: HOP-92
HT-29 = test system: HT-29
Hs-578T = test system: Hs-578T
IGROV-1 = test system: IGROV-1
KM12 = test system: KM12
LOX IMVI = test system: LOX IMVI
M14 = test system: M14
MCF7 = test system: MCF7
MDA-MB-231 = test system: MDA-MB-231
MDA-MB-435 = test system: MDA-MB-435
MDA-N = test system: MDA-N
MOLT-4 = test system: MOLT-4
Malme-3M = test system: Malme-3M
NCI-H226 = test system: NCI-H226
NCI-H23 = test system: NCI-H23
NCI-H460 = test system: NCI-H460
NCI-H522 = test system: NCI-H522
NCI/ADR-RES = test system: NCI/ADR-RES
OVCAR-3 = test system: OVCAR-3
OVCAR-4 = test system: OVCAR-4
OVCAR-5 = test system: OVCAR-5
OVCAR-8 = test system: OVCAR-8
PC-3 = test system: PC-3
RXF 393 = test system: RXF 393
SF-268 = test system: SF-268
SF-295 = test system: SF-295
SK-MEL-28 = test system: SK-MEL-28
SK-MEL-2 = test system: SK-MEL-2
SK-MEL-5 = test system: SK-MEL-5
SN12C = test system: SN12C
SNB-19 = test system: SNB-19
SNB-75 = test system: SNB-75
SR = test system: SR
SW-620 = test system: SW-620
T47D = test system: T47D
TK-10 = test system: TK-10
U-251 = test system: U-251
UACC-257 = test system: UACC-257
UACC-62 = test system: UACC-62
UO-31 = test system: UO-31
CCRF-CEM = test system: CCRF-CEM
HCC 2998 = test system: HCC 2998
HL-60 = test system: HL-60
K562 = test system: K562
RPMI-8226 = test system: RPMI-8226
SF-539 = test system: SF-539
SK-OV-3 = test system: SK-OV-3

Measured: GI50

COC(=O)CCCC(=O)O
inactive: 786-0 > 100 µM | A498 > 100 µM | A549 > 100 µM | ACHN > 100 µM | BT-549 > 100 µM | CAKI-1 > 100 µM | COLO 205 > 100 µM | DU-145 > 100 µM | EKVX > 100 µM | HCT-116 > 100 µM | HOP-62 > 100 µM | HOP-92 > 100 µM | HT-29 > 100 µM | Hs-578T > 100 µM | IGROV-1 > 100 µM | KM12 > 100 µM | LOX IMVI > 100 µM | M14 > 100 µM | MCF7 > 100 µM | MDA-MB-231 > 100 µM | MDA-MB-435 > 100 µM | MDA-N > 100 µM | MOLT-4 > 100 µM | Malme-3M > 100 µM | NCI-H226 > 100 µM | NCI-H23 > 100 µM | NCI-H460 > 100 µM | NCI-H522 > 100 µM | NCI/ADR-RES > 100 µM | OVCAR-3 > 100 µM | OVCAR-4 > 100 µM | OVCAR-5 > 100 µM | OVCAR-8 > 100 µM | PC-3 > 100 µM | RXF 393 > 100 µM | SF-268 > 100 µM | SF-295 > 100 µM | SK-MEL-28 > 100 µM | SK-MEL-2 > 100 µM | SK-MEL-5 > 100 µM | SN12C > 100 µM | SNB-19 > 100 µM | SNB-75 > 100 µM | SR > 100 µM | SW-620 > 100 µM | T47D > 100 µM | TK-10 > 100 µM | U-251 > 100 µM | UACC-257 > 100 µM | UACC-62 > 100 µM | UO-31 > 100 µM
> 100 µM: HCT-15

O=[N+]([O-])c1cccc(-c2csc(N/N=C3\NC/C(=C/c4ccc5c(c4)OCO5)S3)n2)c1
inactive: 786-0 38.4 µM | A498 15.2 µM | A549 39.4 µM | ACHN 28.9 µM | BT-549 25.1 µM | CAKI-1 38.4 µM | CCRF-CEM 35.4 µM | COLO 205 28.4 µM | DU-145 33.8 µM | EKVX 9.02 µM | HCC 2998 31.9 µM | HCT-116 30.6 µM | HL-60 26.6 µM | HOP-62 25.2 µM | HOP-92 16.1 µM | HT-29 22.4 µM | Hs-578T 24.2 µM | IGROV-1 21 µM | K562 38.3 µM | KM12 12.9 µM | LOX IMVI 50.7 µM | M14 23.3 µM | MCF7 33.7 µM | MDA-MB-231 35.1 µM | MDA-MB-435 40.2 µM | MDA-N 30.4 µM | MOLT-4 34.4 µM | NCI-H226 16.6 µM | NCI-H23 20.1 µM | NCI-H460 33.5 µM | NCI-H522 18.2 µM | NCI/ADR-RES 19.6 µM | OVCAR-3 30.3 µM | OVCAR-4 27.9 µM | OVCAR-5 28.4 µM | OVCAR-8 14.3 µM | PC-3 21.5 µM | RPMI-8226 37.7 µM | RXF 393 22.6 µM | SF-268 23.3 µM | SF-295 35 µM | SF-539 40.8 µM | SK-MEL-2 22.1 µM | SK-MEL-5 17.3 µM | SK-OV-3 26.8 µM | SN12C 37.2 µM | SNB-19 20.5 µM | SNB-75 15.4 µM | SW-620 34 µM | T47D 29.9 µM | TK-10 32.2 µM | U-251 33.4 µM | UACC-257 35.9 µM | UACC-62 18.8 µM | UO-31 25.9 µM
35.7 µM: HCT-15

COc1cc(/C=C2\N=C(c3ccccc3)N(c3ccc(C(=O)c4ccccc4)cc3N3C(=O)/C(=C/c4cc(OC)c(OC)c(OC)c4)N=C3c3ccccc3)C2=O)cc(OC)c1OC
inactive: 786-0 16.8 µM | A498 12 µM | A549 13.7 µM | ACHN 22.6 µM | BT-549 14.4 µM | CAKI-1 22.2 µM | CCRF-CEM 5.31 µM | COLO 205 16.4 µM | DU-145 14.5 µM | EKVX 24.8 µM | HCC 2998 2.94 µM | HCT-116 10.6 µM | HL-60 4.05 µM | HOP-62 20.7 µM | HOP-92 47.2 µM | HT-29 29.1 µM | Hs-578T 17.9 µM | IGROV-1 15.7 µM | K562 4.86 µM | KM12 13.2 µM | LOX IMVI 14.3 µM | M14 12.1 µM | MCF7 12.6 µM | MDA-MB-231 16.9 µM | MDA-MB-435 2.85 µM | MDA-N 2.73 µM | MOLT-4 4.97 µM | Malme-3M 13.8 µM | NCI-H23 17.1 µM | NCI-H460 8.49 µM | NCI-H522 4.65 µM | NCI/ADR-RES 7.8 µM | OVCAR-3 2.08 µM | OVCAR-4 21.8 µM | OVCAR-5 30.8 µM | OVCAR-8 19.9 µM | PC-3 12.6 µM | RPMI-8226 9.73 µM | RXF 393 11.2 µM | SF-268 20.3 µM | SF-295 11.7 µM | SK-MEL-28 18.7 µM | SK-MEL-2 9.77 µM | SK-MEL-5 9.33 µM | SK-OV-3 13.3 µM | SN12C 23.1 µM | SNB-19 25.6 µM | SNB-75 7.36 µM | SW-620 7.57 µM | T47D 4.93 µM | TK-10 16.8 µM | U-251 18.7 µM | UACC-257 15.2 µM | UACC-62 9.48 µM | UO-31 16 µM
5.62 µM: HCT-15

OC(Cc1cccc2ccccc12)CN1CCC(c2ccccc2)CC1 (stereo unspecified)
inactive: 786-0 15 µM | A549 15.9 µM | ACHN 17.1 µM | BT-549 16.8 µM | CAKI-1 11.1 µM | CCRF-CEM 18.5 µM | COLO 205 13 µM | DU-145 14.9 µM | EKVX 14 µM | HCC 2998 2.56 µM | HCT-116 13.2 µM | HL-60 16.7 µM | HOP-62 15.8 µM | HOP-92 12.4 µM | HT-29 11.2 µM | Hs-578T 15.8 µM | K562 12.5 µM | KM12 14.8 µM | LOX IMVI 15.5 µM | M14 13.8 µM | MCF7 17.3 µM | MDA-MB-231 14.2 µM | MDA-MB-435 15.1 µM | MDA-N 14.3 µM | NCI-H23 15.3 µM | NCI-H460 13.9 µM | NCI-H522 9.48 µM | NCI/ADR-RES 14.9 µM | OVCAR-3 15.1 µM | OVCAR-5 13.7 µM | OVCAR-8 16.8 µM | PC-3 14.5 µM | RPMI-8226 8.13 µM | RXF 393 10.2 µM | SF-268 14.4 µM | SF-295 13.2 µM | SF-539 17.3 µM | SK-MEL-28 13.4 µM | SK-MEL-5 12.1 µM | SK-OV-3 17.5 µM | SN12C 16.5 µM | SNB-19 13 µM | SNB-75 12.3 µM | SR 10.8 µM | SW-620 15 µM | T47D 14.3 µM | TK-10 12.8 µM | U-251 13.4 µM | UACC-257 3.72 µM | UACC-62 15.3 µM
active: UO-31 0.0241 µM
14.5 µM: HCT-15
